Like-named read-outs stand apart in the source and are kept apart here.
Experiments:
[1] = system: inflammatory mediator release; experiment: reverse passive Arthus pleurisy assay, inflammatory mediator release; assay type: in vivo, rat; settings: for ED50: Rattus norvegicus, po
Protocol: (§1) The compounds of the invention are further tested in the reverse passive Arthus pleurisy assay to evaluate their effectiveness in inflammatory mediator release and/or the fluid and cellular phases of an inflammatory response.
A reverse passive Arthus reaction is induced in the pleural cavity of male Lewis rats (150-200 g; fasted overnight prior to use) by the intravenous administration of bovine serum albumin (BSA; 4 mg/0.2 ml) followed 30 minutes later by the injection of rabbit anti-BSA (1 mg/0.2 ml; lyophilized IgG fraction; Organon Teknika, West Chester, PA) into the right pleural space under halothane anesthesia. […] Animals are sacrificed at either the time of peak eicosanoid production (i.e. 5 minutes after anti-BSA for immunoreactive TxB2, 10 minutes for immunoreactive LTB4, 20 minutes for immunoreactive LTC4) or at the time of peak neutrophil infiltration (4 hours after anti-BSA) by CO2 inhalation. The pleural cavity is then exposed, the fluid exudate removed by gentle vacuum aspiration and the volume of exudate is recorded. For the determination of cellular infiltration, the pleural cavity is rinsed with 3 ml of 0.1% EDTA in sterile saline, and the recovered wash is pooled with the exudate. Cell number is determined on a model ZBI Coulter counter. For determination of eicosanoid production, undiluted pleural exudate is microfuged and the supernatant is extracted with ethanol (8-10 times volume). Extracts are either stored at -20° C., or are evaporated to dryness under a stream of N2 and reconstituted in radioimmunoassay (RIA) buffer.
Eicosanoids are quantitated by RIA according to the procedure specified by the RIA kit manufacturer (Advanced Magnetics, Cambridge, MA). Briefly, 100 μl of ^3 H-labeled eicosanoid and 100 μl of specific antibody are sequentially added to 100 μl of extracted pleural exudate in BGG-phosphate buffer which contains 0.01 M phosphate, 0.1% bovine gamma globulin and 0.1% sodium azide at pH 7.0. Antibody-bound eicosanoid is separated form unbound eicosanoid by the addition of 750 μl of dextran (0.4%)-coated charcoal (0.4% Norit A) containing 0.1% sodium azide. The mixture is centrifuged at 2000 RPM at 5° C. for 15 minutes to pellet the charcoal and adsorbed unbound eicosanoid. Antibody-bound labeled eicosanoid is quantitated by counting in a liquid scintillation counter, and is correlated to concentration by a standard curve.
(§2) Inflammatory cells are expressed as 10^6 cells/ml, pleural exudate is expressed as ml of fluid, and the amount of eicosanoids in the pleural cavity is expressed as ng/ml of exudate. Mean±S.E.M. is determined for each group. Percent inhibition (% I) of cell number, exudate volume and eicosanoid production is calculated for vehicle-treated control groups, and the responses in drug-treated rats are then expressed as the mean $ I of control.

pleural inflammation = experiment: reverse passive Arthus pleurisy assay, pleural inflammation; assay type: in vivo; settings: rat; for ED30: po, 4 h; for ED30 / ED30 Fluid Exudation: p.o.
Protocol: as §1
A reverse passive Arthus reaction is induced in the pleural cavity of male Lewis rats (150-200 g; fasted overnight prior to use) by the intravenous administration of bovine serum albumin (BSA; 4 mg/0.2 ml) followed 30 minutes later by the injection of rabbit anti-BSA (1 mg/0.2 ml; lyophilized IgG fraction; Organon Teknika, West Chester, PA) into the right pleural space under halothane anesthesia. Drugs or vehicle (0.5% Tween-80) control are administered orally in a volume of 1 ml/100 g body weight at 1 hour prior to the anti-BSA. Animals are sacrificed at either the time of peak eicosanoid production (i.e. 5 minutes after anti-BSA for immunoreactive TxB2, 10 minutes for immunoreactive LTB4, 20 minutes for immunoreactive LTC4) or at the time of peak neutrophil infiltration (4 hours after anti-BSA) by CO2 inhalation. The pleural cavity is then exposed, the fluid exudate removed by gentle vacuum aspiration and the volume of exudate is recorded. For the determination of cellular infiltration, the pleural cavity is rinsed with 3 ml of 0.1% EDTA in sterile saline, and the recovered wash is pooled with the exudate. Cell number is determined on a model ZBI Coulter counter. For determination of eicosanoid production, undiluted pleural exudate is microfuged and the supernatant is extracted with ethanol (8-10 times volume). Extracts are either stored at -20° C., or are evaporated to dryness under a stream of N2 and reconstituted in radioimmunoassay (RIA) buffer.
as §2

LTD4 = target: T1, LTD4 (Cavia porcellus, UniProt Q2NNR5); experiment: LTD4 antagonist activity in isolated guinea pig trachea; assay type: cell-based; settings: reference leukotriene antagonists
T1 construct: isolated guinea pig trachea; from tissue; host or cells: guinea pig tracheal rings
T1 sequence (Q2NNR5 1-340): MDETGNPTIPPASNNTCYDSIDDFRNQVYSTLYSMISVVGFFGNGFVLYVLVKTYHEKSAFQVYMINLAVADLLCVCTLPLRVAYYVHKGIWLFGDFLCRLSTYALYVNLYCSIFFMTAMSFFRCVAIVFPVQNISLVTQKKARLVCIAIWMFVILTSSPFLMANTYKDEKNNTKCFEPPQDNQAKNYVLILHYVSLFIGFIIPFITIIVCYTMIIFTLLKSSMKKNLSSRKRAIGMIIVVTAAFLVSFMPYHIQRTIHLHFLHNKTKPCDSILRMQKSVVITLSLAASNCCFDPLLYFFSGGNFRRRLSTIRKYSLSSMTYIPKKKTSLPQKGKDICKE
Protocol: The LTD4 antagonist activity of the compounds of the invention is assessed in the in vitro isolated guinea pig trachea assay. Male Hartley guinea pigs (350-400 g) are euthanized by a blow to the head, the neck is opened and the trachea removed. The trachea is maintained in aerated physiological salt solution, cleared of connective tissue and fat and cut into rings approximately 2 mm in width (usually containing two cartilaginous segments per ring). Two pieces of silk suture are then passed through the lumen of the tracheal ring and are tied around the cartilage, one on each side of the trachealis muscle. The tracheal ring is suspended between a glass hook and a force displacement transducer in a 10 ml organ bath for measurement of isometric tension. Tissues are maintained at 37° C. in aerated ([…] /5% CO2) physiological salt solution of the following composition: […] The tracheal rings are maintained at 2 g resting tension and equilibrated for 45 minutes (with frequence washing and readjustment of resting tension). The tracheal rings are first contracted by the addition of carbachol (3×10^-6 M), to determine tissue responsiveness and establish a reference contraction. On attainment of a stable level of contraction (approximately 30 minutes), the tissues are washed several times until baseline tension has been restored and the re-equilibrated for 30 minutes. The tissues are then incubated for 45 minutes with a test antagonist (either 1×10^-6 M or 1×10^-5 M) or 10 μl of an appropriate solvent control (control, non-treated). One tissue in each group serves as the control. Twenty minutes prior to the construction of the LTD4 cumulative concentration-response curve, L-[…]×10^-2 M final bath concentration) is added to inhibit bioconversion of LTD4 to LTE4. Only one LTD4 concentration-response curve is constructed in each tissue. All responses to LTD4 in an individual tissue are measured as a percentage of the reference contraction of that tissue to carbachol. LTD4 antagonist activity is determined by comparison of the concentration response curves of LTD4 in the presence and absence of antagonist. Assessment of the relative rightward shift of the antagonist treated curve relative to the solvent (control) treated tissue is calculated as a concentration ratio (Eq. A) and used in subsequent calculations to derive an antagonist pKB value (Eqs. B and C). In the vent that the maximum response to LTD4 is depressed, the EC50 for that particular curve is determined, an "apparent" pKB reported, and the compound reported as "not-competitive." [formula] If a compound is found to be active and/or depress the maximal response to LTD4, then a range of concentrations of the test compound should be used generating multiple concentration ratios which would than be used to perform a Schild analysis, and determination of a pA2 value where appropriate.

cyclooxygenase = experiment: inhibition of synthesis of cyclooxygenase products TxB2 and PGE2 (rat polymorphonuclear leukocytes); assay type: cell-based; settings: 10 μM; rat PMN; negative = potentiation of PGE2 synthesis
Protocol: (§3) Peritoneal PMN are obtained from female Wistar rats (150-250 g) that received an i.p. injection of 6% glycogen (10 ml). After 24 hours, rats are killed by CO2 asphysiation and peritoneal cells are harvested by peritoneal lavage using Ca^++ and MG^++ free Hanks' balanced salt solution (HBSS). The peritoneal exudate is centrifuged at 400 g for 10 minutes. After centrifugation, the lavaged fluid is removed and the cell pellet is resuspended in HBSS containing Ca^++ and MG^++ and 10 mM L-cysteine at a concentration of 2×10^7 cells/ml. To 1 ml portions of cell suspension, test drugs or vehicle are added and incubated at 37° C. for 10 minutes. Following this preincubation, the calcium ionophore (10 μM), a23187, is added together with 0.5 μM [14 C] arachidonic acid and further incubated for 10 minutes. The reaction is stopped by the addition of ice cold water (3 ml) and acidifying to pH 3.5. Lipoxygenase products are then extracted twice into diethyl ether. The pooled ether extracts are evaporated to dryness under nitrogen and the residue is redissolved in a small volume of methanol and spotted on aluminum backed pre-coated thin layer chromatographic plates. The samples are then cochromatographed with authentic reference 5-HETE in the solvent system - hexane: ether: acetic acid (50:50:3). After chromatography, the areas associated with 5-HETE standard are identified by autoradiography, cut out and quantitated by liquid scintillation.
However, in order to determine cyclooxygenase activity, the samples are cochromatographed with authentic reference TxB2 and PGE2 in the solvent system ethyl acetate: formic acid (80:1) and the upper phase of ethyl acetate: isooctane: acetic acid: water (110:50:20:100). After chromatography, the areas associated with the TxB2 and PGE2 standards are identified by autoradiography, cut out and quantitated by liquid scintillation techniques.

5-lipoxygenase = target: T2, 5-lipoxygenase (Rattus norvegicus, UniProt P12527); experiment: inhibition of 5-HETE synthesis by rat glycogen elicited polymorphonuclear leukocytes; assay type: cell-based; settings: read-out: % Inhibition of 5-LO (as 5-HETE)
T2 construct: Peritoneal PMN are obtained from female Wistar rats (150-250 g); endogenous in cells; host or cells: rat glycogen-elicited peritoneal polymorphonuclear leukocytes, intact
T2 sequence (P12527 1-673): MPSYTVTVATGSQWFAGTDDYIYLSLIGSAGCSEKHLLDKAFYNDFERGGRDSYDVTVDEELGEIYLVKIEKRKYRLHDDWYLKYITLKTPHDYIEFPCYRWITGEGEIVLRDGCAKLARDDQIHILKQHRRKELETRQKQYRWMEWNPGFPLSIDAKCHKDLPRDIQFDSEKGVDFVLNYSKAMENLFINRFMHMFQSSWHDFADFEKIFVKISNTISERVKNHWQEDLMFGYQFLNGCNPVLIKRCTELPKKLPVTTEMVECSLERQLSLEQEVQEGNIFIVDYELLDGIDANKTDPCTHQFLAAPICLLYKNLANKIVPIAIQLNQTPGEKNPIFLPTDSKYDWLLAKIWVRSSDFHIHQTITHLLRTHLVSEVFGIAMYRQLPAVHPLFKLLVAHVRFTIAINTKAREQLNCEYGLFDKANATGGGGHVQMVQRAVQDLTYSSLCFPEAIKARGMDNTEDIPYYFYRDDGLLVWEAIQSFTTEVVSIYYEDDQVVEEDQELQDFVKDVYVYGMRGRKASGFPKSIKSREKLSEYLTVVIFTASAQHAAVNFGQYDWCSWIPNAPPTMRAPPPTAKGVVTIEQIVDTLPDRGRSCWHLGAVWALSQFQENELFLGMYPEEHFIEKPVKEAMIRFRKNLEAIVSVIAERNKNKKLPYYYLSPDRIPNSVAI
Protocol: The assay of this Example measures the ability of the compounds of the invention to inhibit the synthesis of 5-HETE by rat glycogen elicited polymorphonuclear leukocytes.
as §3

[2] = 5 min, p.o., 1 hour prior to anti-BSA, rat, read-out: ED50 TxB2
[3] = 10 min, p.o., 1 hour prior to anti-BSA, rat, read-out: ED50 LTB4
[4] = p.o., 1 hour prior to anti-BSA, rat, 10 min
[5] = p.o., 1 hour prior to anti-BSA, rat, 5 min

In the case of `O=C(O)Cc1ccccc1Nc1c(Cl)cccc1Cl` [Diclofenac], the “% Inh LTB4” value ([1]; 10 mg/kg p.o., rat) is reported as 0% and the ED50 ([1]; 5 min, read-out: ED50 TxB2) is reported as 6 mg/kg.

For `CC(C(=O)O)c1cccc(C(=O)c2ccccc2)c1` (stereo not shown) [Ketoprofen], the “% Inh LTB4” value ([1]; 10 mg/kg p.o., rat) was 35% and the ED50 ([1]; 5 min, read-out: ED50 TxB2) was 0.18 mg/kg.

`NC1=NN(c2cccc(C(F)(F)F)c2)CC1` [BW755C] showed an ED30 (pleural inflammation; read-out: ED30 Cellular Influx) of 28 mg/kg, an ED30 (pleural inflammation; read-out: ED30 Fluid Exudation) of 14 mg/kg and an ED50 [1, 2] of 18 mg/kg. It also gave an ED50 [1, 3] of 23 mg/kg.

Work on `CN1C(C(=O)Nc2ccccn2)=C(O)c2ccccc2S1(=O)=O` [Piroxican] yielded an ED30 (pleural inflammation; read-out: ED30 Cellular Influx) of 3 mg/kg and an ED30 (pleural inflammation; read-out: ED30 Fluid Exudation) of 1 mg/kg.

For `C[C@H](C(=O)O)c1ccc2cc(OCc3ccc4ccccc4n3)ccc2c1.NC(CO)(CO)CO` [Wy-50,295-A], the “% Inh TxB2” value ([1]; 75 mg/kg p.o., rat) was 0% and the “ED50 LTB4” value [1, 4] was 15 mg/kg.

In the case of `C[C@@H]1C[C@H]2[C@@H]3CCC4=CC(=O)C=C[C@]4(C)[C@@]3(F)[C@@H](O)C[C@]2(C)[C@@]1(O)C(=O)CO` [Dexamethasone], the “ED30 Fluid Exudation” value (pleural inflammation) is reported as 0.05 mg/kg and the ED30 (pleural inflammation; read-out: ED30 Cellular Influx) is reported as 0.13 mg/kg.

`CCCc1c(OCCCCc2nn[nH]n2)ccc(C(C)=O)c1O` [Ly-171,883, reference compound] was tested, and the pKB (LTD4) was 7.44 ± 0.12.

In the case of `COc1ccc2cc([C@H](C)C(=O)O)ccc2c1` [naproxen], the “% Inhibition of CO (as PGE2)” value (cyclooxygenase) is reported as 85%, the “% Inh Cellular Influx” value (pleural inflammation; 8 mg/kg p.o.) is reported as 29% and the “ED30 Fluid Exudation” value (pleural inflammation) is reported as 3.9 mg/kg. For the same molecule, the inhibition at 10 µM (5-lipoxygenase) was -94%, the “% Inh LTB4” value ([1]; 4 mg/kg p.o., rat) was 0% and the “ED50 TxB2” value [1, 5] was 0.24 mg/kg.

With `O=C1CCN(c2ccccc2)N1` [Phenidone] the ED30 (pleural inflammation; read-out: ED30 Cellular Influx) was 23 mg/kg, the ED30 (pleural inflammation; read-out: ED30 Fluid Exudation) was 21 mg/kg and the ED50 [1, 2] was 69 mg/kg. The ED50 [1, 3] was 10 mg/kg.

With `CN=C1CCN(c2cccc(C(F)(F)F)c2)N1` [BW540C] the “ED50 TxB2” value [1, 5] was 19 mg/kg and the “ED50 LTB4” value [1, 4] was 30 mg/kg.

For `O=S(=O)(Nc1cccc(OCc2ccc3ccccc3n2)c1)C(F)(F)F` [Wy-48,252, reference compound], the pKB (LTD4) was 6.90 ± 0.23.
